Results: patent US6323001A, “Increasing the trehalose content of organisms by transforming them with combinations of the structural genes for trehalose synthase” (BTG International Ltd., priority 1994, dated 2001)
Like-named read-outs stand apart in the source and are kept apart here.

Experiments:
extract of X2180 yeast = test: Synthesis of [14C]-trehalose from [U-14C]-G6P by extract of wild-type yeast; assay type: biochemical, S. cerevisiae; conditions: 2.5 mM ADPG
[1] = target: T1, Tre6P synthase activity of truncated trehalose synthase (Saccharomyces cerevisiae, UniProt Q00764); test: Tre6P synthase assay of truncated trehalose synthase; assay type: biochemical, baker's yeast
T1 construct: contained the 57 kDa short chain; made in house; host or cells: baker's yeast (native enzyme, proteolytically truncated during purification)
T1 sequence (Q00764 1-495): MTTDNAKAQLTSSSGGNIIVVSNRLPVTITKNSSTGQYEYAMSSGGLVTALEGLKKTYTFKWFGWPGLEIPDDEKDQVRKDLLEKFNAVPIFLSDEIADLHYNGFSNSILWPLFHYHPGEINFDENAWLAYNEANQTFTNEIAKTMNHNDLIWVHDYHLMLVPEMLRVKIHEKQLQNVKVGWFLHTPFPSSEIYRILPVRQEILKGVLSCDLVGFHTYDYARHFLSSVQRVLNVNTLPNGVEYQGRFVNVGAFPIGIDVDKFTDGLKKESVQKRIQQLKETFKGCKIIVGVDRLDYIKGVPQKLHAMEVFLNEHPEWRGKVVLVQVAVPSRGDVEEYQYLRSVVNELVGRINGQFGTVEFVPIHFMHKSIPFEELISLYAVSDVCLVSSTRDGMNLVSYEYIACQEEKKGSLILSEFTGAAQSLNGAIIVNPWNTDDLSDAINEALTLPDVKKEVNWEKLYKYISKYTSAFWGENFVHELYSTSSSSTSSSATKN
Procedure: (§1) With microbial materials, Tre6Pase and Tre6P synthase standard assays and other kinetic measurements were made as described by Londesborough & Vuorio [(1991) loc. cit.] except that the standard Tre6P synthase assay mixture contained 5 mM F6P unless stated otherwise.
(§2) Truncated trehalose synthase containing the short (57 kDa) chain and the 86 and 93 kDa long chain fragments was prepared according to the method of Londesborough & Vuorio (1991) loc. cit.] for proteolytically activated TPS/P complex. Tre6P synthase and Tre6Pase activities were assayed as described by Londesborough & Vuorio [(1991) loc. cit.]. [N-ethyl-1-^14C]-maleimide (ethyl-labelled NEM; 40 mCi/mmol) was NEC-454 from New England Nuclear. N-ethyl-[2,3-^14 C]-maleimide (ring-labelled NEM; 6 mCi/mmol) was CFA 293 from Amersham International. Both were obtained as solutions in n-pentane and the manufacturer's stated specific activities were assumed to be correct. Unlabelled N-ethyl-maleimide (NEM) was E-3876 from Sigma. It was dissolved in 25 mM HEPES pH 7.0 immediately before use and standardized by absorption measurements at 305 nm, assuming an E^mM of 0.62.
(§3) Truncated trehalose synthase was prepared as described by Londesborough & Vuorio [(1991) loc. cit.] and contained the 57 kDa short chain and 86 and 93 kDa fragments of the long chain. Intact trehalose synthase was prepared as in Example 1. Kinetic assays were done at 30° C. as described in General Methods and Materials.

[2] = target: Tre6Pase activity of truncated trehalose synthase (Saccharomyces cerevisiae, UniProt P31688); test: Tre6Pase assay of truncated trehalose synthase; assay type: biochemical, baker's yeast
Chain of Tre6Pase activity of truncated trehalose synthase (P31688 whole entry, one chain of several, the tested form may be a part): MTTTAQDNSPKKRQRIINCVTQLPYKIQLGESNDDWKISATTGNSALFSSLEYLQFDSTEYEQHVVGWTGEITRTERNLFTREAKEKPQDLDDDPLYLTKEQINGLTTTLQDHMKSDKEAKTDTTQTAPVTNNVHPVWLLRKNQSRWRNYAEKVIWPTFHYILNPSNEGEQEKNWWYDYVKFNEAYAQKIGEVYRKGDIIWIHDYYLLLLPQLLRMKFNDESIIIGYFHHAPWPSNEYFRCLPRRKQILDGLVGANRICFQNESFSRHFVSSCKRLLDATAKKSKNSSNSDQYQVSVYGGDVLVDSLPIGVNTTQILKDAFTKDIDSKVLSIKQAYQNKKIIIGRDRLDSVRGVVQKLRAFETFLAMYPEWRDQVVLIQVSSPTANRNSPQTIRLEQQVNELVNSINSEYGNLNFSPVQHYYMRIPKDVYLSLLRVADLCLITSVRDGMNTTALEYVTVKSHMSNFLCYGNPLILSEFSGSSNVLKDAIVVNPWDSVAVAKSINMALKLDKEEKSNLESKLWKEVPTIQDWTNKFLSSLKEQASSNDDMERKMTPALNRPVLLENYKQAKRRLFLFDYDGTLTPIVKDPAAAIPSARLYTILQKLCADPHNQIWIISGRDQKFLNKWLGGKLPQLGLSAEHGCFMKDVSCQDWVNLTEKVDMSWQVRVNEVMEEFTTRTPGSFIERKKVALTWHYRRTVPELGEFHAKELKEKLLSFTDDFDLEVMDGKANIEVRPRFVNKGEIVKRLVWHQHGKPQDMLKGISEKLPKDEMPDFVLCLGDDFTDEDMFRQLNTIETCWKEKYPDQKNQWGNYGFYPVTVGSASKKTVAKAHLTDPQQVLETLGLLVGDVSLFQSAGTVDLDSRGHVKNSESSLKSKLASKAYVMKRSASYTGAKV
Chain of Tre6Pase activity of truncated trehalose synthase (P38427 336-1098, one chain of several, further chain): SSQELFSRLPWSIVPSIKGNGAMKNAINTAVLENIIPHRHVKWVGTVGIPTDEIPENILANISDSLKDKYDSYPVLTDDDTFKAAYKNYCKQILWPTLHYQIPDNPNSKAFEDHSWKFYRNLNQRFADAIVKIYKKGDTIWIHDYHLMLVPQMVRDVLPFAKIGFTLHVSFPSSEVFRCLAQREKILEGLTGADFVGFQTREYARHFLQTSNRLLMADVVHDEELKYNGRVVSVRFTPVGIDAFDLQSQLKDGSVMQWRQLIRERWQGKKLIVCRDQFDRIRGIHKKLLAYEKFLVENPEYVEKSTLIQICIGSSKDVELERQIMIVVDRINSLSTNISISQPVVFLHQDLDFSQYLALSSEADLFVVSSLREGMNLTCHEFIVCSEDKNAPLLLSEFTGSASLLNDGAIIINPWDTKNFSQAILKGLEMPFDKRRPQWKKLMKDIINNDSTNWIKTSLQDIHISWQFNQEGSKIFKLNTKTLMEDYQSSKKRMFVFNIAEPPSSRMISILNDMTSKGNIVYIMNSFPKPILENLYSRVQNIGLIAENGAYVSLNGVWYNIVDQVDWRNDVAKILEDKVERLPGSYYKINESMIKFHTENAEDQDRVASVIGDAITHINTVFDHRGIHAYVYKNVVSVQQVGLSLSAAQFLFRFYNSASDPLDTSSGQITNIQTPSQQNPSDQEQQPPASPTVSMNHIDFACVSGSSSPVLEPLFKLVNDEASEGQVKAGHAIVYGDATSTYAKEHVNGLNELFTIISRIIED
Procedure: as §1, §2
(§4) In one experiment, 2.0 μl of 2.4 mM ethyl-labelled NEM was mixed with 150 μl of gel-filtered enzyme and incubated at 23° C. Samples (10 μl) taken at various times up to 190 min were mixed with 60 μl of Laemmli sample buffer (the mercapto-ethanol in this buffer should destroy residual NEM), boiled for 5 min and subjected to SDS-PAGE. At closely similar times (and also at 23 h) other samples (10 μl) were mixed with 100 μl (for Tre6P synthase) or 700 μl (for Tre6Pase) of 5 mg BSA/ml 25 mM HEPES pH 7.0 containing 2 mM MgCl2, 1 mM EDTA, 0.2 M NaCl and 1 mM dithiothreitol (the dithiothreitol should destroy residual NEM) and assayed for Tre6P synthase and Tre6Pase.
as §3

[3] = target: T2, Tre6P synthase activity of intact trehalose synthase (Saccharomyces cerevisiae, UniProt Q00764); test: Tre6P synthase assay of intact trehalose synthase; assay type: biochemical, baker's yeast; conditions: 5 or 2.5 mM; 1 mM F6P at 1.3 mM phosphate
T2 construct: Intact trehalose synthase was purified from commercial baker's yeast; made in house; host or cells: commercial baker's yeast (native enzyme purified, not recombinant)
T2 sequence (P31688 whole entry, one chain of several): as the sequence (P31688 whole entry, one chain of several, the tested form may be a part) above
T2 sequence (P38427 whole entry, one chain of several, further chain): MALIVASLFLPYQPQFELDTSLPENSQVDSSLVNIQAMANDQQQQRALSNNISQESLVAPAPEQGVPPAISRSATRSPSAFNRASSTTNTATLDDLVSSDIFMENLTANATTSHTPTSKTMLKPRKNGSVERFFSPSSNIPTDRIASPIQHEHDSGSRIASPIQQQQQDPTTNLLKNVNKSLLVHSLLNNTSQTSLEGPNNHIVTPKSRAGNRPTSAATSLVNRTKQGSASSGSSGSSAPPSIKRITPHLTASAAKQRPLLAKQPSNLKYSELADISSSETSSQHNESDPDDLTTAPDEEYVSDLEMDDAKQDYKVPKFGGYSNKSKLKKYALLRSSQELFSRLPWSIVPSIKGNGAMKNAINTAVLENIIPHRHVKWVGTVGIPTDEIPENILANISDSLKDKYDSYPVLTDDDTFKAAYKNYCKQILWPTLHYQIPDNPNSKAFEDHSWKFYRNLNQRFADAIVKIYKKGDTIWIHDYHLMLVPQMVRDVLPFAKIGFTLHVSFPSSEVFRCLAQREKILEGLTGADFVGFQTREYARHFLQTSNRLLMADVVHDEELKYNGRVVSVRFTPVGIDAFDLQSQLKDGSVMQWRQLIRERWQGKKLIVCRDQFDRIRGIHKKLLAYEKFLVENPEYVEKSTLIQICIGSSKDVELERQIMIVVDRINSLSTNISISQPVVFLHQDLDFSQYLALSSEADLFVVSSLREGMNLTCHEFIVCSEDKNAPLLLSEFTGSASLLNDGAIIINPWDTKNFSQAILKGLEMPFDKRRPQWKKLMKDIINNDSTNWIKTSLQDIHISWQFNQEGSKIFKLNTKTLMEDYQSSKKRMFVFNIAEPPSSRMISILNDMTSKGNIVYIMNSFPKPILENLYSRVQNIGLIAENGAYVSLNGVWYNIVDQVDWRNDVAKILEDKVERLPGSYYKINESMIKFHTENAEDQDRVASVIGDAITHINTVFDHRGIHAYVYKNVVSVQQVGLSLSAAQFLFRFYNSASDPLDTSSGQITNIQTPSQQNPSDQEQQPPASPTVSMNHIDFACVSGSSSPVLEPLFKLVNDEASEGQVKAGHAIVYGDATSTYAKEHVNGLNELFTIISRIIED
Procedure: as §1
Removal of the N-terminal 325 or so amino acids from the 123 kDa long chain of intact trehalose synthase by treatment with trypsin in vitro produces an enzyme with catalytic properties like those of the truncated enzyme purified by Londesborough & Vuorio [(1991) loc. cit.]. In one experiment intact trehalose synthase (0.28 Tre6P synthase units, ≈9.4 μg) was incubated with or without 0.5 μg of trypsin at 30° C. in 250 μl of 13 mM HEPES pH 7.0 containing 1 mM MgCl2, 0.5 mM EDTA, 0.5 mM dithiothreitol, 0.2 M NaCl and 0.5 mM benzamidine. Its Tre6P synthase activity was determined at intervals using standard assay mixtures (containing 5 mM F6P) containing no or 4 mM K phosphate pH 6.8, and samples were prepared for SDS-PAGE analysis immediately before and 48 min after addition of the trypsin.
as §3

[4] = target: T3, 93 and 86 kDa long chain fragments of truncated trehalose synthase (Saccharomyces cerevisiae, UniProt P38427); test: Labelling of truncated trehalose synthase with [14C]-NEM; assay type: binding, baker's yeast; conditions: for NEM entered the long chain fragments: 32 μM ethyl-labelled NEM; for NEM incorporated into long chain fragments at complete loss of Tre6Pase: per mole of truncated trehalose synthase, ring- and ethyl-labelled NEM
T3 construct: 93 kDa band may also hold TPS2 fragment
T3 sequence (P38427 336-1098): as the sequence (P38427 336-1098, one chain of several, further chain) above
Procedure: as §4
After electrophoresis, the upper (cathode) buffer, containing most of the added radioactivity, was completely removed before disassembling the apparatus. The gel was then fixed, stained and destained as described by Laemmli [(1970) Nature, London 227, 680-685] and dried. […] The Coomassie blue stained bands and adjacent, empty areas (as blanks) were cut out of the dried gel (in later experiments, they were cut from undried gels), broken up and extracted overnight with 1 ml of 5% SDS in pre-blanked scintillation vials. Then 10 ml of a toluene/Triton X100-based scintillant was added, and the tubes were repeatedly counted using a wide energy window to minimise quench effects. After 10 h constant counting levels were reached. Excess radioactivity was calculated by subtracting a blank value obtained from empty regions of the gel.

Nc1ncnc2c1ncn2[C@@H]1O[C@H](COP(=O)(O)OP(=O)(O)O[C@H]2O[C@H](CO)[C@@H](O)[C@H](O)[C@H]2O)[C@@H](O)[C@H]1O [ADPG, adenosine 5'-diphosphoglucose]
effect on rate of appearance of radioactivity (extract of X2180 yeast): did not cause any significant increase

O=C(O)c1cc(SSc2ccc([N+](=O)[O-])c(C(=O)O)c2)ccc1[N+](=O)[O-] [DTNB, dithiodinitro-benzoate]
inhibition at 900 µM ([1]; 10 min, 0,9 mM DTNB, 10 min, read-out: Tre6P synthase lost): < 28%
inhibition at 900 µM ([2]; 10 min, read-out: Tre6Pase lost, 0,9 mM DTNB, 10 min): > 95%

O=C(COP(=O)(O)O)[C@@H](O)[C@H](O)[C@H](O)CO [Fructose-1-phosphate]
inhibition of Tre6P synthase activity [3]: about 25%

CCN1C(=O)C=CC1=O [NEM, N-ethyl-maleimide]
inhibition at 1900 µM ([1]; 1.9 mM NEM, 24° C., about 0.17 mM dithiothreitol, read-out: loss of Tre6P synthase activity): ≤ 24%
inhibition at 32 µM ([2]; 0.175 h, read-out: initial Tre6Pase lost, 32 μM ethyl-labelled NEM, 23° C., 10.5 min): 30%
inhibition at 32 µM ([2]; 190 min, read-out: initial Tre6Pase lost, 32 μM ethyl-labelled NEM, 23° C., 190 min): 56%
inhibition at 1900 µM ([2]; read-out: loss of Tre6Pase activity, 1.9 mM NEM, 24° C., about 0.17 mM dithiothreitol): ≥ 98%
NEM entered the long chain fragments ([4]; 10.5 min): 0.20 moles per mole (150 Kg) of enz
NEM entered the long chain fragments ([4]; 190 min): 0.32 moles per mole (150 Kg) of enz
NEM incorporated into long chain fragments at complete loss of Tre6Pase [4]: less than 1 mole
NEM incorporated into long chain fragments at complete loss of Tre6Pase ([4]; listed as 14C-N-ethylmaleimide): about 1 mole

O=C(COP(=O)(O)O)[C@@H](O)[C@H](O)[C@H](O)COP(=O)(O)O [fructose-1,6-bisphosphate]
inhibition of Tre6P synthase activity [3]: about 25%

O=P(O)(O)OC[C@H]1O[C@@](CO)(OP(=O)(O)O)[C@@H](O)[C@@H]1O [fructose-2,6-bisphosphate]
inhibition of Tre6P synthase activity [3]: about 25%

O=P(O)(O)O[C@H]1O[C@H](CO)[C@@H](O)[C@H](O)[C@H]1O [glucose-1-phosphate]
inhibition of Tre6P synthase activity [3]: about 25%
